From the NIST ThermoML archive (doi:10.1016/j.jct.2015.07.005)
Values joined by “and” are separate entries in the source; they are usually repeats but may differ in a detail not shown here. Equal entries are not always repeated.

Settings: Gas, Frequency=0.005 MHz, Spherical cavity resonance method

C [methane]
Settings	speed of sound
280.01 K, 500.03 kPa	434.02 m/s and 434.03 m/s
280.01 K, 500.04 kPa	434.03 m/s
280.01 K, 500.18 kPa	434.03 m/s
280.02 K, 500.03 kPa	434.03 m/s and 434.03 m/s
280.02 K, 500.04 kPa	434.03 m/s and 434.02 m/s and 434.03 m/s
280.02 K, 500.18 kPa	434.03 m/s
280.02 K, 500.19 kPa	434.03 m/s and 434.03 m/s and 434.03 m/s
293.27 K, 394.31 kPa	443.98 m/s and 443.97 m/s and 443.97 m/s
293.27 K, 394.32 kPa	443.97 m/s and 443.97 m/s and 443.97 m/s
293.28 K, 394.32 kPa	443.97 m/s [middle of 6 runs]
293.28 K, 394.33 kPa	443.98 m/s and 443.98 m/s and 443.97 m/s
293.28 K, 394.34 kPa	443.98 m/s
293.28 K, 394.35 kPa	443.98 m/s and 443.98 m/s
293.29 K, 394.36 kPa	443.98 m/s and 443.97 m/s
319.52 K, 429.9 kPa	462.06 m/s
319.53 K, 429.91 kPa	462.06 m/s
319.55 K, 428.61 kPa	461.97 m/s and 461.97 m/s
319.87 K, 471.86 kPa	462.12 m/s
319.87 K, 471.87 kPa	462.12 m/s
319.88 K, 471.88 kPa	462.12 m/s
319.88 K, 471.91 kPa	462.13 m/s
319.89 K, 471.91 kPa	462.13 m/s and 462.13 m/s
319.89 K, 471.92 kPa	462.13 m/s
319.89 K, 471.93 kPa	462.12 m/s and 462.13 m/s
319.94 K, 430.41 kPa	462.32 m/s
319.94 K, 430.42 kPa	462.32 m/s
319.95 K, 429.13 kPa	462.24 m/s
319.96 K, 429.13 kPa	462.24 m/s
339.35 K, 456 kPa	474.76 m/s and 474.76 m/s
339.88 K, 456.67 kPa	475.08 m/s
339.89 K, 456.67 kPa	475.08 m/s
359.27 K, 481.98 kPa	486.94 m/s
359.28 K, 480.58 kPa	486.84 m/s
359.28 K, 481.81 kPa	486.76 m/s
359.28 K, 481.99 kPa	486.94 m/s
359.29 K, 480.58 kPa	486.85 m/s
359.85 K, 482.79 kPa	487.31 m/s
359.86 K, 482.59 kPa	487.15 m/s
359.86 K, 482.79 kPa	487.31 m/s
359.87 K, 482.6 kPa	487.15 m/s
360.03 K, 529.63 kPa	487.35 m/s
360.03 K, 529.64 kPa	487.35 m/s and 487.35 m/s
360.03 K, 529.66 kPa	487.35 m/s
360.04 K, 529.66 kPa	487.34 m/s and 487.34 m/s
360.04 K, 529.67 kPa	487.33 m/s and 487.33 m/s
379.2 K, 507.87 kPa	498.66 m/s and 498.66 m/s
379.78 K, 508.56 kPa	498.97 m/s and 498.98 m/s
399.24 K, 533.63 kPa	510.01 m/s and 510.02 m/s
399.82 K, 534.48 kPa	510.39 m/s and 510.39 m/s
399.99 K, 471.94 kPa	510.49 m/s and 510.5 m/s and 510.49 m/s
399.99 K, 471.95 kPa	510.47 m/s and 510.48 m/s
399.99 K, 471.96 kPa	510.47 m/s
399.99 K, 471.97 kPa	510.47 m/s
399.99 K, 471.98 kPa	510.47 m/s
400 K, 471.96 kPa	510.46 m/s
419.54 K, 559.42 kPa	521.02 m/s
419.55 K, 559.43 kPa	521.03 m/s
419.56 K, 559.63 kPa	521.2 m/s and 521.2 m/s
419.99 K, 560 kPa	521.28 m/s
420 K, 560.01 kPa	521.28 m/s and 521.29 m/s
420.02 K, 560.19 kPa	521.47 m/s
420.02 K, 560.2 kPa	521.46 m/s
439.94 K, 496.85 kPa	532.03 m/s
439.94 K, 496.86 kPa	532.02 m/s and 532.03 m/s
439.94 K, 496.87 kPa	532.02 m/s
439.94 K, 496.88 kPa	532.01 m/s [middle of 5 runs]
449.69 K, 597.89 kPa	537.24 m/s
449.69 K, 597.9 kPa	537.24 m/s [middle of 6 runs]
449.7 K, 597.88 kPa	537.22 m/s
449.7 K, 597.89 kPa	537.22 m/s and 537.23 m/s
449.7 K, 597.9 kPa	537.23 m/s and 537.24 m/s and 537.23 m/s
449.71 K, 597.88 kPa	537.22 m/s and 537.21 m/s
449.71 K, 597.89 kPa	537.22 m/s [middle of 5 runs]
449.72 K, 597.88 kPa	537.2 m/s
449.72 K, 597.89 kPa	537.21 m/s [middle of 4 runs]
449.73 K, 597.86 kPa	537.19 m/s
449.73 K, 597.87 kPa	537.2 m/s and 537.19 m/s and 537.19 m/s
449.74 K, 597.86 kPa	537.19 m/s
449.74 K, 597.87 kPa	537.2 m/s and 537.2 m/s
449.77 K, 597.88 kPa	537.2 m/s and 537.2 m/s
449.78 K, 597.9 kPa	537.2 m/s
449.79 K, 597.9 kPa	537.2 m/s
479.91 K, 495.54 kPa	552.38 m/s
479.92 K, 495.51 kPa	552.4 m/s and 552.39 m/s
479.92 K, 495.52 kPa	552.4 m/s
479.92 K, 495.54 kPa	552.39 m/s
479.92 K, 495.55 kPa	552.39 m/s
479.92 K, 495.57 kPa	552.38 m/s and 552.39 m/s
479.92 K, 539.8 kPa	552.38 m/s and 552.39 m/s
479.92 K, 539.81 kPa	552.39 m/s
